From US8642028B2, “Recombinant adenoviruses encoding the specific iodine transporter (NIS)” (Aventis Pharma S.A., priority 1999, dated 2014)

Experiments:
NIS [1] = target: T1, NIS (Rattus norvegicus, UniProt Q63008); assay: Inhibition by perchlorate of iodine transport by NIS in SiHa cells infected with Ad-NIS; format: cell-based
T1 construct: expressed in transfected cells; host or cells: SiHa human epithelial tumor cells (ATCC HTB-35) infected with Ad-NIS at a multiplicity of infection of 10
T1 sequence (Q63008 1-618): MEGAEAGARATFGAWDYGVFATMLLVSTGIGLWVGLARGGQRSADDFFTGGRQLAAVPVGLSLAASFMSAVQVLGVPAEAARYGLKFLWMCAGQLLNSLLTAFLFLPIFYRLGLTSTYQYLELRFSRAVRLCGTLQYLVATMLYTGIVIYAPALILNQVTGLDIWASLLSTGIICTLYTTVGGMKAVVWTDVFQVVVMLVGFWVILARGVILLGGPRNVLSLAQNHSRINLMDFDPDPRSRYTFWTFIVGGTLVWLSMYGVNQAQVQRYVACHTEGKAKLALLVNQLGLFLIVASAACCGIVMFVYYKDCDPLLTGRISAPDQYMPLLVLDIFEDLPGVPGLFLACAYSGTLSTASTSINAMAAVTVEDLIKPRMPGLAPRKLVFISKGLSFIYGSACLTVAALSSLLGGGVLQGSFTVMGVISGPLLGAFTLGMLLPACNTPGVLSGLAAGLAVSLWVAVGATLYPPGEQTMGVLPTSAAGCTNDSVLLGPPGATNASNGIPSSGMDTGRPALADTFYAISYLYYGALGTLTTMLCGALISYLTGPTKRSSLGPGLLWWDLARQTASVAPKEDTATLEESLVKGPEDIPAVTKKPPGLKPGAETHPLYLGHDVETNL
Protocol: (§1) The cells are infected with the Ad-NIS vector at a multiplicity of infection of 10. The capacity of the cells to capture iodine is tested 28 to 29 h after infection according to the Weiss et al. method [Endocrinology (1984) 114: 1090-1098]. The infected cells are washed with HBSS buffer and placed in contact for the time indicated in FIG. 3 with 0.5 ml of HBSS buffer containing 0.1 μCi of iodine-125. At the end of the contact time, the cells are washed once with cold HBSS buffer and then incubated for 20 min with cold ethanol. The quantity of iodine-125 captured by the cells is determined by assaying the radioactivity of the ethanol, with a gamma counter.
(§2) The specific inhibition of iodine transport by NIS was tested in the presence of perchlorate. NaCIO4 was added to the HBSS buffer containing iodine-125 so as to obtain final concentrations of 30, 300 and 3000 μM. The contact time between the cells and the iodine-125 is 15 minutes. The results are expressed as number of counts for the same number of cells.

NIS [2] = target: T1, NIS; assay: Inhibition by perchlorate of iodine transport by NIS in FRTL-5 cells; format: cell-based
Protocol: as §1, §2

[O-][Cl+3]([O-])([O-])O [NaCIO4]
inhibitor concentration required for the same level of inhibition, SiHa cells relative to FRTL-5 cells (NIS [1]; SiHa cells infected with Ad-NIS versus FRTL-5 cells): 10 times
inhibition at 30 µM (NIS [1]; SiHa cells infected with Ad-NIS, 30 μM NaCIO4, 15 min contact, read-out: inhibition of the fixing of iodine): 40%
inhibition at 300 µM (NIS [1]; SiHa cells infected with Ad-NIS, 300 μM NaCIO4, 15 min contact, read-out: inhibition of the fixing of iodine): 92%
inhibition at 3000 µM (NIS [1]; SiHa cells infected with Ad-NIS, 3 mM NaCIO4, 15 min contact, read-out: inhibition of the fixing of iodine): 98%
inhibition at 30 µM (NIS [2]; FRTL-5, FRTL-5 cells, 30 μM NaCIO4, 15 min contact with iodine-125, read-out: inhibition of the fixing of iodine): > 90%
inhibition of the fixing of iodine (NIS [2]; FRTL-5 cells, high NaCIO4 concentrations, 15 min contact with iodine-125): 95%
